Counter-ions that a name gives are not always drawn.
These compounds were tested against MCH receptor (Homo sapiens, UniProt Q99705) (assay: High throughput functional screening FLIPR/FDSS6000 (intracellular Ca2+ evoked by MCH)). Conditions: FLIPR/FDSS, antagonist activity vs 50 nM MCH; class by percent of control at 10^−7 M or IC50; table after the classification; read-out: class.
Type: cell-based
Summary of the method: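 For antagonist testing, compound-treated cells (30 min, 37 °C) were stimulated with 50 nM MCH and intracellular Ca2+ followed by Fluo4 fluorescence on FLIPR/FDSS6000. Receptor was a constitutively active, non-endogenous MCH receptor; dye loading 4 μM Fluo4-AM, 1 h, 37 °C.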

Compound | IC50
O=C(N[C@H]1CC[C@@H](Nc2ccc3ccccc3n2)CC1)c1cc(F)cc(F)c1 [Example 3152, 3,5-Difluoro-N-[cis-4-(quinolin-2-ylamino)-cyclohexyl]-benzamide hydrochloride] | < 50 nM
O=C(N[C@H]1CC[C@@H](Nc2ccc3ccccc3n2)CC1)c1ccc(Cl)c(F)c1 [Example 3153, 4-Chloro-3-fluoro-N-[cis-4-(quinolin-2-ylamino)-cyclohexyl]-benzamide-hydrochloride] | < 50 nM
CCN(CC(=O)N[C@H]1CC[C@@H](Nc2ccc3ccccc3n2)CC1)c1ccc(Cl)cc1 [Example 3154, C-[(4-Chloro-phenyl)-ethyl-amino]-N-[cis-4-(quinolin-2-ylamino)-cyclohexyl]-acetamide dihydrochloride] | < 50 nM
O=C(N[C@H]1CC[C@@H](NCc2ccc3ccccc3n2)CC1)c1ccc(F)c(F)c1 [Example 3156, 3,4-Difluoro-N-{cis-4-[(quinolin-2-ylmethyl)-amino]-cyclohexyl}-benzamide dihydrochloride] | > 200 nM
Cc1cc(N[C@H]2CC[C@@H](NC(=O)c3cc(C(F)(F)F)cc(C(F)(F)F)c3)CC2)nc2ccccc12 [Example 3157, N-[cis-4-(4-Methyl-quinolin-2-ylamino)-cyclohexyl]-3,5-bis-trifluoromethyl-benzamide hydrochloride] | 50 to 200 nM
Cc1cc(N[C@H]2CC[C@@H](NC(=O)c3cccnc3N)CC2)nc2ccccc12 [Example 3161, 2-Amino-N-[cis-4-(4-methyl-quinolin-2-ylamino)-cyclohexyl]-nicotinamide dihydrochloride] | 50 to 200 nM
Cc1cc(N[C@H]2CC[C@@H](NC(=O)c3ccc(F)cc3F)CC2)nc2ccccc12 [Example 3163, 2,4-Difluoro-N-[cis-4-(4-methyl-quinolin-2-ylamino)-cyclohexyl]-benzamide hydrochloride] | < 50 nM
Cc1cc(N[C@H]2CC[C@@H](NC(=O)c3cc(F)ccc3F)CC2)nc2ccccc12 [Example 3164, 2,5-Difluoro-N-[cis-4-(4-methyl-quinolin-2-ylamino)-cyclohexyl]-benzamide hydrochloride] | 50 to 200 nM
Cc1cc(N[C@H]2CC[C@@H](NC(=O)c3cc(F)cc(F)c3)CC2)nc2ccccc12 [Example 3166, 3,5-Difluoro-N-[cis-4-(4-methylquinolin-2-ylamino)-cyclohexyl]-benzamide hydrochloride] | < 50 nM
Cc1cc(N[C@H]2CC[C@@H](NC(=O)c3cc(F)c(F)c(F)c3)CC2)nc2ccccc12 [Example 3180, 3,4,5-Trifluoro-N-[cis-4-(4-methyl-quinolin-2-ylamino)-cyclohexyl]-benzamide hydrochloride] | < 50 nM
Cc1cc(N[C@H]2CC[C@@H](NC(=O)c3cc(Cl)ccn3)CC2)nc2ccccc12 [Example 3184, 4-Chloro-pyridine-2-carboxylic acid [cis-4-(4-methyl-quinolin-2-ylamino)-cyclohexyl]-amide hydrochloride] | 50 to 200 nM
Cc1cc(N[C@H]2CC[C@@H](NC(=O)c3ccc(C(F)(F)F)nc3)CC2)nc2ccccc12 [Example 3186, N-[cis-4-(4-Methyl-quinolin-2-ylamino)-cyclohexyl]-6-trifluoromethyl-nicotinamide hydrochloride] | 50 to 200 nM
Cc1cc(N[C@H]2CC[C@@H](NC(=O)c3ccc(-n4ccnc4)nc3)CC2)nc2ccccc12 [Example 3187, 6-Imidazol-1-yl-N-[cis-4-(4-methyl-quinolin-2-ylamino)-cyclohexyl]-nicotinamide dihydrochloride] | > 200 nM
CN(C)c1cc(N[C@H]2CC[C@@H](NC(=O)c3ccc(F)c(F)c3)CC2)nc2ccccc12 [Example 3188, N-[cis-4-(4-Dimethylamino-quinolin-2-ylamino)-cyclohexyl]-3,4-difluoro-benzamide hydrochloride] | < 50 nM
CN(C)c1cc(N[C@H]2CC[C@@H](NC(=O)c3csc([N+](=O)[O-])c3)CC2)nc2ccccc12 [Example 3189, 5-Nitro-thiophene-3-carboxylic acid [cis-4-(4-dimethylamino-quinolin-2-ylamino)-cyclohexyl]-amide hydrochloride] | < 50 nM
CN(C)c1cc(N[C@H]2CC[C@@H](CNC(=O)c3ccc(F)c(F)c3)CC2)nc2ccccc12 [Example 3190, N-[cis-4-(4-Dimethylamino-quinolin-2-ylamino)-cyclohexylmethyl]-3,4-difluoro-benzamide hydrochloride] | 50 to 200 nM

More lines, now with the values ahead:

IC50 | Compound
> 200 nM | NC(=O)c1cccc(C(=O)N[C@H]2CC[C@@H](Nc3ccc4ccccc4n3)CC2)c1 [Example 3155, N-[cis-4-(Quinolin-2-ylamino)cyclohexyl]-isophthalamide hydrochloride]
< 50 nM | Cc1cc(N[C@H]2CC[C@@H](NC(=O)c3cccc(OC(F)(F)F)c3)CC2)nc2ccccc12 [Example 3158, N-[cis-4-(4-Methyl-quinolin-2-ylamino)-cyclohexyl]-3-trifluoromethoxy-benzamide hydrochloride]
< 50 nM | Cc1cc(N[C@H]2CC[C@@H](NC(=O)c3cccc(O)c3)CC2)nc2ccccc12 [Example 3160, 3-Hydroxy-N-[cis-4-(4-methyl-quinolin-2-ylamino)-cyclohexyl]-benzamide hydrochloride]
50 to 200 nM | Cc1cc(N[C@H]2CC[C@@H](NC(=O)c3cccc(F)c3F)CC2)nc2ccccc12 [Example 3162, 2,3-Difluoro-N-[cis-4-(4-methyl-quinolin-2-ylamino)-cyclohexyl]-benzamide hydrochloride]
50 to 200 nM | Cc1cc(N[C@H]2CC[C@@H](NC(=O)c3c(F)cccc3F)CC2)nc2ccccc12 [Example 3165, 2,6-Difluoro-N-[cis-4-(4-methylquinolin-2-ylamino)-cyclohexyl]-benzamide hydrochloride]
< 50 nM | Cc1cc(N[C@H]2CC[C@@H](NC(=O)c3ccc(Cl)c(F)c3)CC2)nc2ccccc12 [Example 3168, 4-Chloro-3-fluoro-N-[cis-4-(4-methyl-quinolin-2-ylamino)-cyclohexyl]-benzamide hydrochloride]
< 50 nM | Cc1cc(N[C@H]2CC[C@@H](NC(=O)c3ccc(F)cc3)CC2)nc2ccccc12 [Example 3169, 4-Fluoro-N-[cis-4-(4-methyl-quinolin-2-ylamino)-cyclohexyl]-benzamide hydrochloride]
< 50 nM | Cc1cc(N[C@H]2CC[C@@H](NC(=O)c3cccc(F)c3)CC2)nc2ccccc12 [Example 3170, 3-Fluoro-N-[cis-4-(4-methyl-quinolin-2-ylamino)-cyclohexyl]-benzamide hydrochloride]
50 to 200 nM | Cc1cc(N[C@H]2CC[C@@H](NC(=O)c3ccccc3F)CC2)nc2ccccc12 [Example 3171, 2-Fluoro-N-[cis-4-(4-methyl-quinolin-2-ylamino)-cyclohexyl]-benzamide hydrochloride]
< 50 nM | Cc1cc(N[C@H]2CC[C@@H](NC(=O)c3ccc(Cl)cc3)CC2)nc2ccccc12 [Example 3172, 4-Chloro-N-[cis-4-(4-methyl-quinolin-2-ylamino)-cyclohexyl]-benzamide hydrochloride]
> 200 nM | Cc1cc(N[C@H]2CC[C@@H](NC(=O)c3cccnc3O)CC2)nc2ccccc12 [Example 3173, 2-Hydroxy-N-[cis-4-(4-methyl-quinolin-2-ylamino)-cyclohexyl]-nicotinamide hydrochloride]
< 50 nM | COC(=O)c1cccc(C(=O)N[C@H]2CC[C@@H](Nc3cc(C)c4ccccc4n3)CC2)c1 [Example 3174, N-[cis-4-(4-Methylquinolin-2-ylamino)-cyclohexyl]-isophthalamic acid-methyl ester hydrochloride]
< 50 nM | Cc1cc(N[C@H]2CC[C@@H](NC(=O)c3ccc(Cl)nc3)CC2)nc2ccccc12 [Example 3175, 6-Chloro-N-[cis-4-(4-methyl-quinolin-2-ylamino)-cyclohexyl]-nicotinamide hydrochloride]
50 to 200 nM | Cc1cc(N[C@H]2CC[C@@H](NC(=O)c3ccc(N(C)C)nc3)CC2)nc2ccccc12 [Example 3176, 6-Dimethylamino-N-[cis-4-(4-methyl-quinolin-2-ylamino)-cyclohexyl]-nicotinamide dihydrochloride]
50 to 200 nM | Cc1cc(N[C@H]2CC[C@@H](NC(=O)c3cccc(CO)c3)CC2)nc2ccccc12 [Example 3177, 3-Hydroxymethyl-N-[cis-4-(4-methyl-quinolin-2-ylamino)-cyclohexyl]-benzamide hydrochloride]
50 to 200 nM | Cc1cc(N[C@H]2CC[C@@H](NC(=O)c3cccc(C(N)=O)c3)CC2)nc2ccccc12 [Example 3178, N-[cis-4-(4-Methylquinolin-2-ylamino)-cyclohexyl]-isophthalamide hydrochloride]
< 50 nM | Cc1cc(N[C@H]2CC[C@@H](NC(=O)c3cc(F)cc(Cl)c3)CC2)nc2ccccc12 [Example 3179, 3-Chloro-5-fluoro-N-[cis-4-(4-methyl-quinolin-2-ylamino)-cyclohexyl]-benzamide hydrochloride]
50 to 200 nM | Cc1cc(N[C@H]2CC[C@@H](NC(=O)c3ccccn3)CC2)nc2ccccc12 [Example 3181, Pyridine-2-carboxylic acid [cis-4-(4-methyl-quinolin-2-ylamino)-cyclohexyl]-amide hydrochloride]
> 200 nM | Cc1cc(N[C@H]2CC[C@@H](NC(=O)c3cccnc3)CC2)nc2ccccc12 [Example 3182, N-[cis-4-(4-Methyl-quinolin-2-ylamino)-cyclohexyl]-nicotinamide hydrochloride]
> 200 nM | Cc1cc(N[C@H]2CC[C@@H](NC(=O)c3ccncc3)CC2)nc2ccccc12 [Example 3183, N-[cis-4-(4-Methyl-quinolin-2-ylamino)-cyclohexyl]-isonicotinamide hydrochloride]
< 50 nM | Cc1cc(N[C@H]2CC[C@@H](NC(=O)c3cncc(Br)c3)CC2)nc2ccccc12 [Example 3185, 5-Bromo-N-[cis-4-(4-methyl-quinolin-2-ylamino)-cyclohexyl]-nicotinamide dihydrochloride]

Source: patent publication US20050197350A1, “Novel quinoline, tetrahydroquinazoline, and pyrimidine derivatives and methods of treatment related to the use thereof” (TAISHO PHARMACEUTICAL CO., LTD., priority 2003, published 2005)
